Test results reported in PubChem BioAssay AID1918994 (Molecular Pharmacology Branch, DTP, NCI, 2023).

System: 292921-168-R-J2-PDC complex spheroid growth
Assay: Anticancer human tumor 292921-168-R-J2-PDC patient-derived pancreatic carcinoma cell line growth inhibition [AhR]
Conditions: for IC50: curve of first compound; for viability, T/C: stronger effect = lower value
Text: Multicellular complex tumor spheroid response to aryl hydrocarbon receptor antagonists in combination with a variety of drugs and investigational agents in selected tumor cell lines
The current study was undertaken to assess response to aryl hydrocarbon receptor antagonists in combination with standard-of-care drugs and investigational agents in solid tumor complex spheroid models. Complex spheroids include a stromal component modeled by human endothelial cells (HUVEC) and fibroblasts modeled by human mesenchymal stem cells (MSCs). The concentration ranges selected for each drug and investigational agent were based upon clinically achievable concentrations if the clinical Cmax of the agent was known.
Compounds. The drugs and investigational agents: BAY 2416964 (NSC825713), GNF351 (NSC835774), CH-223191 (NSC835775), CPI-455 (NSC825282), aza-TdCyd (NSC777586), decitabine (NSC127716), belinostat (NSC758774), entinostat (NSC756642), pevonedistat (NSC761192), tazemetostat (NSC777109), talazoparib (NSC765396), olaparib (NSC753686), selinexor (NSC780203), nedisertib (M3814, NSC802822), bortezomib (NSC756655), venetoclax (NSC766270), doxorubicin (NSC123127), elimusertib (BAY189344, NSC800525), ceralasertib (AZD6738, NSC777638), TAK-243 (NSC785004), alisertib (NSC759677), etoposide (NSC141540), topotecan (NSC609699), eribulin (NSC707389), gemcitabine (NSC613327), carboplatin (NSC241240), cisplatin (NSC119875), and SN-38 (NSC673596) were obtained from the National Cancer Institute (NCI) Developmental Therapeutics Program Chemical Repository (32). The FDA-approved anticancer drug set is available from the Developmental Therapeutics Program at https://dtp.cancer.gov/organization/dscb/obtaining/available plates.htm. […] The stock solutions were prepared in dimethyl sulfoxide (DMSO, Sigma-Aldrich, St. Louis, MO, cat. D2650), except for the platinum compounds which were prepared in saline (Quality Biological, Gaithersburg, MD, cat. 114-055-101), at 800-fold the tested concentration and stored at -70 degrees C prior to their use. All drugs and investigational agents were tested over a range starting from a high concentration at or near the clinical Cmax and decreasing in half-log increments. If the clinical Cmax for an agent had not been determined, the highest concentration tested was 10 microM (Table 1).
Cell Culture. All cells were maintained in an incubator at 37 degrees C and 5% CO2 with 95% humidity. The PDC lines were cultured according to standard operating procedures established by the NCI PDMR (https://pdmr.cancer.gov). Briefly, all PDCs were thawed and cultured in Matrigel-coated flasks prepared with a working solution of 1X Ham's F-12 nutrient mix, without supplementation (Invitrogen, Waltham, MA, cat. 11765054), 100 U/mL penicillin-streptomycin (Invitrogen, cat. 15140122), and 2.5% Matrigel (Corning Inc., Corning, NY, cat. 354248) for the first three passages. All PDCs were cultured in complete DMEM/F-12 media containing advanced DMEM/F-12 (Invitrogen, cat. 12634028), 4.9% defined fetal bovine serum, heat inactivated (HyClone Laboratories Inc., Logan, UT, cat. SH30070.03HI), 389 ng/mL hydrocortisone (Sigma-Aldrich, cat. H4001), 9.7 ng/mL human EGF recombinant protein (Invitrogen, cat. PHG0313), 23.4 microg/mL adenine (Sigma-Aldrich, cat. A2786), 97.3 U/mL penicillin-streptomycin (Invitrogen, cat. 15140122), 1.9 mM L-glutamine (Invitrogen, cat. 25030081), and 9.7 microM Y-27632 dihydrochloride (Tocris Bioscience, Bristol, United Kingdom, cat. 1254). The PDCs were cultured in complete DMEM/F12 media without 10 microM Y-27632 dihydrochloride for at least two passages prior to the screen. The established cell lines NCI-H1341 and […] were cultured in DMEM/F-12, HEPES (Invitrogen, cat. 11330032), 5% defined fetal bovine serum (HyClone Laboratories Inc., cat. SH30070.03), ITS premix universal culture supplement [insulin (5 microg/mL), transferrin (5 microg/mL), and selenious acid (5 ng/mL)] […]
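Note: spheroids exposed to compounds for seven days after three days of growth.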

In the case of CCc1c2c(nc3ccc(O)cc13)-c1cc3c(c(=O)n1C2)COC(=O)[C@]3(O)CC + CC(CO)NC(=O)c1cc(-c2ccc(Cl)cc2)nn(-c2cnn(C)c2)c1=O, the IC50 (second compound 0.1 µM) is reported as 1.79 nM, the IC50 (second compound 0.316 µM) is reported as less than 0.949 nM and the IC50 (second compound 1 µM) is reported as 1.02 nM. For the same molecule, the IC50 (second compound 3.16 µM) was less than 0.949 nM, the IC50 (second compound 10 µM) was less than 0.949 nM and the viability, T/C (second compound 0.1 µM, first compound 0.000949 µM) was 55.6%. The viability, T/C (second compound 0.1 µM, first compound 0.003 µM) was 46.4%, the viability, T/C (second compound 0.1 µM, first compound 0.00949 µM) was 20.9% and the viability, T/C (second compound 0.1 µM, first compound 0.03 µM) was 12.4%. It also gave a viability, T/C (second compound 0.1 µM, first compound 0.0949 µM) of 5.44%, a viability, T/C (second compound 0.1 µM, first compound 0.3 µM) of 3.22% and a viability, T/C (second compound 0.316 µM, first compound 0.000949 µM) of 49.2%. It also gave a viability, T/C (second compound 0.316 µM, first compound 0.003 µM) of 42%, a viability, T/C (second compound 0.316 µM, first compound 0.00949 µM) of 22.7% and a viability, T/C (second compound 0.316 µM, first compound 0.03 µM) of 12%. The viability, T/C (second compound 0.316 µM, first compound 0.0949 µM) was 6.1%, the viability, T/C (second compound 0.316 µM, first compound 0.3 µM) was 3.45% and the viability, T/C (second compound 1 µM, first compound 0.000949 µM) was 49.8%. It also gave a viability, T/C (second compound 1 µM, first compound 0.003 µM) of 43.3%, a viability, T/C (second compound 1 µM, first compound 0.00949 µM) of 21.9% and a viability, T/C (second compound 1 µM, first compound 0.03 µM) of 12.9%. It also gave a viability, T/C (second compound 1 µM, first compound 0.0949 µM) of 7.22%, a viability, T/C (second compound 1 µM, first compound 0.3 µM) of 3.97% and a viability, T/C (second compound 3.16 µM, first compound 0.000949 µM) of 44.4%. It also gave a viability, T/C (second compound 3.16 µM, first compound 0.003 µM) of 32.9%, a viability, T/C (second compound 3.16 µM, first compound 0.00949 µM) of 21.2% and a viability, T/C (second compound 3.16 µM, first compound 0.03 µM) of 11.3%. The viability, T/C (second compound 3.16 µM, first compound 0.0949 µM) was 6.34%, the viability, T/C (second compound 3.16 µM, first compound 0.3 µM) was 3.5% and the viability, T/C (second compound 10 µM, first compound 0.000949 µM) was 38.2%. It also gave a viability, T/C (second compound 10 µM, first compound 0.003 µM) of 31.2%, a viability, T/C (second compound 10 µM, first compound 0.00949 µM) of 20.5% and a viability, T/C (second compound 10 µM, first compound 0.03 µM) of 12%. The viability, T/C (second compound 10 µM, first compound 0.0949 µM) was 6.27% and the viability, T/C (second compound 10 µM, first compound 0.3 µM) was 4.4%.
